A short description of series [1]: DVS analysis (hygroscopicity). In kind it is physicochemical. The method, then:
Differences in hygroscopicity (moisture uptake) of the various forms of a solid material provided a measure of their relative stability at increasing relative humidity. Moisture sorption isotherms of small samples were obtained using a DVS-1 system from Surface Measurement Systems (London, UK); this instrument is suitable for use with as little as a few milligrams of sample, with an accuracy of 0.1 μg. The relative humidity was varied during sorption-desorption-sorption (40-95-0-40% RH) at a constant temperature of 25° C., typically with a hold time of 60 minutes per step (10% relative humidity step). At the end of the DVS experiment the sample was measured by XRPD.
The hygroscopicity was classified according to the European Pharmacopoeia Hygroscopicity classification.

The conditions of series [2]: 40° C./75% RH.
Description: Subsequently, all the solids were exposed to accelerated aging conditions (AAC) at 40° C./75% RH for 48 hours and re-measured by HT-XRPD to test their physical stability.
Series [3] can be described thus: Physical and chemical stability study up to 2 years (XRPD, TGMS, HPLC).
Series [4] can be described thus: Approximate solubility determination by adding aliquots of solvent. Format: physicochemical. The settings on record: thermodynamic from solid. As to the method:
The approximate solubility was determined by adding small aliquots of solvent (50 μL up to 1 mL, 100 μL above 1 mL) to the solid starting material until complete dissolution was observed or a maximum volume of 4 mL was reached. Afterwards the solvents were evaporated and obtained solids were analyzed by HT-XRPD.

Series [5] is described as follows: Thermal stability study in solution (LCMS). Format: physicochemical. The following applies: for Area % (LCMS): approx. 0.3 mg/mL. The method, then: A thermal stability study was performed on ABN-401 to investigate the chemical stability of the starting material in solution when exposed to elevated temperatures. Solutions of ABN-401 were prepared in acetone, 1,2-dimethoxyethane, and acetonitrile with a concentration of approximately 0.3 mg/mL. Solutions were left at RT for 1 hour and successively, two aliquots of each solution were taken and heated at 50° C. and 80° C. for one hour. All these solutions were analyzed by LCMS. Additionally, the samples kept at RT were remeasured by LCMS after 24 hours to check the chemical degradation over time.
Starting material characterization and purity assessment of the novel crystalline forms of the free base: • Method name: S19061_03.M • Sample: • Concentration: 0.3 mg/ml • Diluent: Acetonitrile

This note sets out measurements from US11964979B2, “Camsylate salts of triazolopyrazine derivatives” (ABION Inc., priority 2022, dated 2024).

In brackets after ≈: the same amount, converted by molar mass. Several values for one entry are separate records, joined by “and”; a condition that tells them apart may be missing. Equal entries are not always repeated. Where two headings read alike, the source gives them in different places.

As to `CC1(C)[C@@H]2CC[C@]1(CS(=O)(=O)O)C(=O)C2.CN1CCN(Cc2ccc(-c3cnc(N4CCO[C@H](Cn5nnc6ncc(-c7cnn(C)c7)nc65)C4)nc3)cc2)CC1` (stereo in doubt) [Camp2], in series [1], the “Form identified by HT-XRPD in the solid recovered after DVS” value is on record as “Camp4”. Besides, in series [1] (25° C.), the “Change in mass at 80% RH” value was determined as 1.4%. For the same molecule, the “Hygroscopicity (European Pharmacopeia Hygroscopicity classification)” value in series [1] (based on change in mass at 80% RH) is given as “slightly hygroscopic”. This molecule also gave a Water vapor uptake in series [1] (first sorption half-cycle, at 95% RH, 25° C.) of 15.6%. Further, the Change in mass in series [1] (first sorption half-cycle, range 40→95% RH, 25° C.) is on record as 14.1%; in series [1] (last sorption half-cycle, range 0→40% RH, 25° C.), 6.6%. The “Reversibility of water uptake” value in series [1] (sorption-desorption-sorption 40-95-0-40% RH) is “irreversible”. The “Form after AAC” value in series [2] (Exp. ID GEN17, Ethanol) is “Camp2”; in series [2] (Exp. ID SSm60, ACN, API:CI 1:1), “Camp2”. Moreover, the “API chemical purity (area %)” value in series [3] (25° C./60% RH for 1 month) was 99.8%; in series [3] (25° C./60% RH for 3 months), 99.7%; in series [3] (25° C./60% RH for 15 months), 99.5% and 97.3%; in series [3] (25° C./60% RH for 24 months) it was 100%; in series [3] (40° C./75% RH for 1 month), 99.8%; in series [3] (40° C./75% RH for 3 months) it was 99.3%. The “API chemical purity (area %)” value in series [3] (40° C./75% RH for 15 months) was found to be 93.7%; in series [3] (40° C./75% RH for 24 months), 88.6%. Besides, the “Mass loss attributed to water (TGA/TGMS)” value was 1.6% in series [3] (25° C./60% RH for 1 month); 1.6% in series [3] (25° C./60% RH for 3 months); 1.6% in series [3] (25° C./60% RH for 15 months); 1.9% in series [3] (25° C./60% RH for 24 months); 1.8% in series [3] (40° C./75% RH for 1 month); 7.1% in series [3] (40° C./75% RH for 3 months). Also, the “Mass loss attributed to water (TGA/TGMS)” value is reported as 6.9% in series [3] (40° C./75% RH for 15 months) and 6.7% in series [3] (40° C./75% RH for 24 months). Besides, the “Solid form by HT-XRPD after exposure” value is listed as “Camp2” in series [3] (25° C./60% RH for 1 month (GEN50)); “Camp2” in series [3] (25° C./60% RH for 3 months (GEN51)); “Camp2” in series [3] (25° C./60% RH for 15 months (GEN52)); “Camp2” in series [3] (25° C./60% RH for 24 months (GEN53)); “Camp2” in series [3] (40° C./75% RH for 1 month (GEN54)); “Camp4” in series [3] (40° C./75% RH for 3 months (GEN55)). Besides, the “Solid form by HT-XRPD after exposure” value in series [3] (40° C./75% RH for 15 months (GEN56)) is “Camp4”; in series [3] (40° C./75% RH for 24 months (GEN57), E = Form E of the free base), “Camp3+E”. The results for the “Solid form conversion (HT-XRPD)” value in series [3] (25° C./60% RH up to 24 months) and in series [3] (40° C./75% RH) were “no solid form conversion occurred” and “solid form conversions were observed after 3 months”, respectively.
For orientation: solubility means the dissolved amount per volume that the medium holds. For the molecule `CN1CCN(Cc2ccc(-c3cnc(N4CCOC(Cn5nnc6ncc(-c7cnn(C)c7)nc65)C4)nc3)cc2)CC1` (stereo not shown) [ABN-401], the solubility is 12.7 to 13.8 mg/mL (≈ 22.4 to 24.4 mM) in series [4] (organic solvent or mixture, 1,2-Dimethoxyethane (SAS6)); greater than 199 mg/mL in series [4] (organic solvent or mixture, 1,4-Dioxane (SAS4)); 22.1 to 25.6 mg/mL (≈ 39 to 45.2 mM) in series [4] (organic solvent or mixture, Acetone (SAS1)); greater than 311 mg/mL in series [4] (organic solvent or mixture, Chloroform (SAS3)); 4.4 to 4.6 mg/mL (≈ 7.76 to 8.12 mM) in series [4] (organic solvent or mixture, Ethyl acetate (SAS5)); less than 2.7 mg/mL in series [4] (organic solvent or mixture, Isopropanol (SAS7)). In addition, the solubility was less than 2.9 mg/mL in series [4] (organic solvent or mixture, Methanol (SAS8)); greater than 181 mg/mL in series [4] (organic solvent or mixture, Tetrahydrofuran (SAS9)); less than 3.1 mg/mL in series [4] (Water (SAS10)). In addition, the “Area % (LCMS)” value in series [5] (1,2-dimethoxyethane solution, 1 h/50° C.) turned out to be 98.6%; in series [5] (1,2-dimethoxyethane solution, 1 h/80° C.) it was 97.7%; in series [5] (1,2-dimethoxyethane solution, 1 h/RT), 99.0%; in series [5] (1,2-dimethoxyethane solution, 24 h/RT), 98.8%; in series [5] (ACN solution, 1 h/50° C.) it was 99.0%; in series [5] (ACN solution, 1 h/80° C.), 98.7%. Further, the “Area % (LCMS)” value in series [5] (ACN solution, 1 h/RT) came to 99.0%; in series [5] (ACN solution, 24 h/RT), 98.1%; in series [5] (Acetone solution, 1 h/50° C.), 99.0%; in series [5] (Acetone solution, 1 h/80° C.), 99.0%; in series [5] (Acetone solution, 1 h/RT), 98.8%; in series [5] (Acetone solution, 24 h/RT), 98.5%. Further, the “Chemical degradation in solution” value in series [5] (samples kept at 50° C. and 80° C. for one hour, acetone, 1,2-dimethoxyethane, acetonitrile) is recorded as “No significant chemical degradation was observed”. Moreover, the “Chemical degradation (LCMS)” value in series [3] (24 months at 25° C./60% RH and at 40° C./75% RH) is “chemical degradation is occurring at both conditions”. Further, the “Mass loss attributed to water (TGA/TGMS)” value in series [3] (25° C./60% RH for 1 month) was determined as 3.7%; in series [3] (25° C./60% RH for 3 months), 4.1%; in series [3] (25° C./60% RH for 15 months), 3.3%; in series [3] (25° C./60% RH for 24 months), 5.3%; in series [3] (40° C./75% RH for 1 month), 4.0%; in series [3] (40° C./75% RH for 3 months), 4.4%. Besides, the “Mass loss attributed to water (TGA/TGMS)” value came to 3.7% in series [3] (40° C./75% RH for 15 months) and 5.2% in series [3] (40° C./75% RH for 24 months). Also, the figures for the “API chemical purity (area %)” value in series [3] (25° C./60% RH for 24 months) and in series [3] (40° C./75% RH for 24 months) were 87.2% and 90.7%, respectively.
With `CC1(C)[C@@H]2CC[C@]1(CS(=O)(=O)O)C(=O)C2.CN1CCN(Cc2ccc(-c3cnc(N4CCO[C@H](Cn5nnc6ncc(-c7cnn(C)c7)nc65)C4)nc3)cc2)CC1` [Camp1], the “Form after AAC” value in series [2] (Exp. ID SSm14, Acetone, API:CI 1:1) was “Camp1”; in series [2] (Exp. ID SSm37, 1,2-Dimethoxyethane, API:CI 1:1) it was “Camp1”.
`CC1(C)[C@@H]2CC[C@]1(CS(=O)(=O)O)C(=O)C2.CN1CCN(Cc2ccc(-c3cnc(N4CCO[C@H](Cn5nnc6ncc(-c7cnn(C)c7)nc65)C4)nc3)cc2)CC1` [Camp4]: the “Form after AAC” value in series [2] (Exp. ID GEN16, Chloroform) was “Camp4”; in series [2] (Exp. ID GEN19, Heptane), “Camp4”; in series [2] (Exp. ID GEN23, IPA/Water (97/3), lc = low crystalline), “lc”; in series [2] (Exp. ID GEN25, 1,4-Dioxane/Water (96/4)) it was “Camp4”; in series [2] (Exp. ID GEN26, THF/Water (95/5)) it was “Camp4”.
Turning to `CC1(C)[C@@H]2CC[C@]1(CS(=O)(=O)O)C(=O)C2.CN1CCN(Cc2ccc(-c3cnc(N4CCO[C@H](Cn5nnc6ncc(-c7cnn(C)c7)nc65)C4)nc3)cc2)CC1` [Camp5], in series [2] (Exp. ID GEN21, THF), the “Form after AAC” value is listed as “Camp2”.
